Source: the supplement of paper PMC8671470

Experiments:
Conditions in all cases: 72 h
[1] = system: HL-60; assay: area under dose-response curve (viability, 1 nM-10 uM) (fraction (0-1)); higher = more sensitive
How it was run: (§1)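 HL-60 cells grown in RPMI 1640 with 10% FBS were rescreened against the full library in 384-well plates, in duplicate, at five tenfold concentrations from 1 to 10,000 nM, alongside DMSO or 100 nM of one of three metabolic inhibitors for 72 h at 37 °C, 5% CO2. Reference wells contained DMSO or 10 μM proteasome inhibitor. Viability was read with CellTiter-Glo and normalised to these reference wells, and where reported, area under the curve was taken from four-parameter log-logistic fits in drc and PharmacoGx.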

[2] = system: KCL-22
How it was run: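 Fifteen myeloid leukaemia lines in RPMI 1640 were treated for 72 h at 37 °C and 5% CO2 with five tenfold doses from 1 to 10,000 nM, in duplicate. ATP luminescence was normalised to vehicle and to a positive control at 10 µM, then fitted with a four-parameter log-logistic model. The IC50 came from these fits.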

[3] = system: K-562; assay: cell viability (% survival relative to DMSO control, bortezomib = 0%); higher = less cytotoxic
How it was run: (§2)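 Seeding density for each of the 10 AML and 5 CML cell lines was titrated to the linear growth range. Cells went into 384-well plates pre-printed in duplicate with compounds at 1, 10, 100, 1000 or 10000 nM and were held for 72 h at 37 °C with 5% CO2. CellTiter-Glo luminescence then provided the readout. Percent survival is expressed relative to vehicle at 100% and a 10 µM positive control at 0%, averaged over duplicates.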

[4] = system: HL-60; assay: as above
How it was run: as §2

[5] = system: HEL; assay: as above
How it was run: as §2

[6] = system: SHI-1; assay: as above
How it was run: as §2

[7] = system: THP-1; assay: as above
How it was run: as §2

[8] = system: BV-173; assay: as above
How it was run: as §2

[9] = system: KG-1; assay: as above
How it was run: as §2

[10] = system: KU-812; assay: as above
How it was run: as §2

[11] = system: MOLM-13; assay: as above
How it was run: as §2

[12] = system: MV4-11; assay: as above
How it was run: as §2

[13] = system: LAMA-84; assay: as above
How it was run: as §2

[14] = system: ML-2; assay: as above
How it was run: as §2

[15] = system: KCL-22; assay: as above
How it was run: as §2

[16] = system: Mono-Mac-6; assay: as above
How it was run: as §2

[17] = system: NOMO-1; assay: as above
How it was run: as §2

[18] = system: HL-60; assay: cell viability (% survival relative to DMSO control); higher = less cytotoxic
How it was run: as §1

c1ccc2nc(-c3nnc4sc(-c5cnccn5)nn34)ccc2c1
Conditions	area under dose-response curve, co-treatment: AZD3965 100 nM	area under dose-response curve, co-treatment: DMSO vehicle	area under dose-response curve, co-treatment: GSK2194069 100 nM	area under dose-response curve, co-treatment: pictilisib 100 nM	cell viability, 1 nM [%]	cell viability, 10 nM [%]	cell viability, 100 nM [%]	cell viability, 1000 nM [%]	cell viability, 10000 nM [%]
[1]	< 0.0301	< 0.0301	< 0.0301	< 0.0301	–	–	–	–	–
[3]	–	–	–	–	110	105	107	108	105
[4]	–	–	–	–	108	100	102	67.9	103
[5]	–	–	–	–	95.3	96	93.7	95.1	99.4
[6]	–	–	–	–	108	107	116	91.9	98
[7]	–	–	–	–	105	103	105	88.5	99.3
[8]	–	–	–	–	103	105	103	100	96.1
[9]	–	–	–	–	110	107	99.4	91.9	84.6
[10]	–	–	–	–	105	115	94.9	91.8	95.7
[11]	–	–	–	–	99.6	108	95.3	86.7	90.4
[12]	–	–	–	–	96.4	107	108	88	111
[13]	–	–	–	–	100	104	105	95.4	94.1
[14]	–	–	–	–	108	122	111	86.5	110
[15]	–	–	–	–	97.3	109	109	105	95.7
[16]	–	–	–	–	111	108	108	91.1	98.5
[17]	–	–	–	–	106	109	99.5	93.7	101

Conditions	IC50 (cell viability) [µM]
[2]	> 10

cell viability [%], [18]
Conditions	0.001 µM	0.01 µM	0.1 µM	1 µM	10 µM
co-treatment: AZD3965 100 nM	98.9	98.75	100.9	98.9	98.4
co-treatment: DMSO vehicle	97.4	100	98.61	98	102
co-treatment: GSK2194069 100 nM	102	101	100	93.01	95.9
co-treatment: pictilisib 100 nM	105	103	103	107	100.1

CCCC(CCC)C(=O)O [Valproic acid]
Conditions	IC50 (cell viability) [µM]
[2]	> 10

cell viability [%]
Conditions	1 nM	10 nM	100 nM	1000 nM	10000 nM
[3]	107	95.7	98.6	109	112
[4]	87.3	96.2	99.2	87.9	103
[5]	119	103	94.5	108	106
[6]	106	94.8	95.9	92.5	101
[7]	104	93.2	93.7	102	91.2
[8]	88.5	93.5	87.8	104	90.6
[9]	90.2	98.7	93	90.4	108
[10]	95.6	86.5	92.6	99.5	97.2
[11]	105	100	100	76	105
[12]	111	86.6	102	96.6	97.5
[13]	106	91.7	96.2	102	106
[14]	106	95.6	93	99.3	91.5
[15]	108	94.1	96.2	127	95.5
[16]	96.3	98.2	98.3	105	99.1
[17]	93.8	93.6	94.6	98.5	104

cell viability [%], [18]
Conditions	0.001 µM	0.01 µM	0.1 µM	1 µM	10 µM
co-treatment: AZD3965 100 nM	101.96	103	94.7	97.8	106
co-treatment: DMSO vehicle	102	99.9	98.5	96.68	105
co-treatment: GSK2194069 100 nM	95.2	106	98.1	93.9	106
co-treatment: pictilisib 100 nM	98.6	101	95	89.6	101
